Assay results taken from patent US20180042234A1, “FUNGICIDAL PYRAZOLES” (E I DU PONT DE NEMOURS AND COMPANY, priority 2015, published 2018).
Marks after values point to notes of the source that are not given here.

What was measured:
[1] = test system: Puccinia recondita f. sp. tritici; assay: Test A: wheat leaf rust, preventive spray on wheat seedlings, visual disease rating; assay type: in vivo
Source text: (§1) General protocol for preparing test suspensions for Tests A-E: the test compounds were first dissolved in acetone in an amount equal to 3% of the final volume and then suspended at the desired concentration (in ppm) in acetone and purified water (50/50 mix by volume) containing 250 ppm of the surfactant Trem® 014 (polyhydric alcohol esters). The resulting test suspensions were then used in Tests A-E. Spraying a 200 ppm test suspension to the point of run-off on the test plants was the equivalent of a rate of 800 g/ha.
(§2) The test suspension was sprayed to the point of run-off on wheat seedlings. The following day the seedlings were inoculated with a spore suspension of Puccinia recondita f. sp. tritici (the causal agent of wheat leaf rust) and incubated in a saturated atmosphere at 20° C. for 24 h, and then moved to a growth chamber at 20° C. for 7 days, after which time visual disease ratings were made.
(§3) Results for Tests A-E are given in Table A. In the Table, a rating of 100 indicates 100% disease control and a rating of 0 indicates no disease control (relative to the controls). A dash (-) indicates no test results. All results are for 200 ppm except where followed by an asterisk “*” which indicates a 250 ppm test suspension was used or a double asterisk “**” which indicates a 50 ppm test suspension was used.

Septoria nodorum = assay: Test E: Septoria glume blotch, preventive spray on wheat seedlings, visual disease rating; assay type: in vivo
Source text: as §1
as §2, with “Septoria nodorum” for “Puccinia recondita f. sp. tritici”, “Septoria glume blotch)” for “wheat leaf rust)”, “48” for “24”, “9” for “7”
as §3

[2] = test system: Blumeria graminis f sp. tritici; assay: Test D: wheat powdery mildew, preventive spray on wheat seedlings, visual disease rating; assay type: in vivo
Source text: as §1
The test suspension was sprayed to the point of run-off on wheat seedlings. The following day the seedlings were inoculated with a spore dust of Blumeria graminis f sp. tritici, (also known as Erysiphe graminis f sp. tritici, the causal agent of wheat powdery mildew) and incubated in a growth chamber at 20° C. for 8 days, after which time visual disease ratings were made.
as §3

Botrytis cinerea = assay: Test C: tomato Botrytis, preventive spray on tomato seedlings, visual disease rating; assay type: in vivo
Source text: as §1
(§4) The test suspension was sprayed to the point of run-off on tomato seedlings. The following day the seedlings were inoculated with a spore suspension of Botrytis cinerea (the causal agent of tomato Botrytis) and incubated in a saturated atmosphere at 20° C. for 48 h, and then moved to a growth chamber at 24° C. for 3 days, after which time visual disease ratings were made.
as §3

Septoria tritici = assay: Test B: wheat leaf blotch, preventive spray on wheat seedlings, visual disease rating; assay type: in vivo
Source text: as §1
as §4, with “wheat” for “tomato”, “Septoria tritici” for “Botrytis cinerea”, “wheat leaf blotch)” for “tomato Botrytis)”, “24°” for “20°”, “20°” for “24°”, “19” for “3”
as §3

[3] = 200 ppm test suspension, 100 = 100% disease control, 0 = no control

Row | melting point | SMILES | Test A disease control rating ([1]; 250 ppm test suspension (*)) | Test E disease control rating (Septoria nodorum; 250 ppm test suspension (*)) | Test D disease control rating ([2]; 250 ppm test suspension (*)) | Test C disease control rating (Botrytis cinerea; 250 ppm test suspension (*)) | Test B disease control rating (Septoria tritici; 250 ppm test suspension (*)) | Test A disease control rating [1, 3] | Test E disease control rating (Septoria nodorum; 200 ppm test suspension) | Test D disease control rating ([2]; 200 ppm test suspension) | Test C disease control rating (Botrytis cinerea; 200 ppm test suspension) | Test B disease control rating (Septoria tritici; 200 ppm test suspension)
1 |  | Cc1nn(C)c(Nc2ccc(F)cc2F)c1C1CCC(C)CC1 (centres unmarked) [Compound 16] | 53* % | 19* % | 97* % | 19* % | 0* % |  |  |  |  | 
2 |  | Cc1nn(C)c(Nc2c(F)cc(Cl)cc2F)c1C1CCCC1 [Compound 52, N-(4-chloro-2,6-difluorophenyl)-4-cyclopenyl-1,3-dimethyl-1H-pyrazol-5-amine] |  |  |  |  |  | 89% | 0% | 98% | 96% | 99%
3 |  | Cc1nn(C)c(Nc2ccc(F)cc2)c1C1CCC(C)(C)CC1 [Compound 14] | 67* % | 62* % | 27* % | 0* % | 33* % |  |  |  |  | 
4 |  | Cc1nn(C)c(Nc2c(F)cc(Cl)cc2F)c1C1=CCCCC1 [Compound 6, N-(4-chloro-2,6-difluorophenyl)-4-(1-cyclohexen-1-yl)-1,3-dimethyl-1H-pyrazol-5-amine] |  |  |  |  |  | 19% | 0% | 0% | 98% | 84%
5 |  | CCC(=O)c1c(C)nn(C)c1Oc1c(F)cccc1F [Compound 7] |  |  |  |  |  | 0% | 0% | 0% | 0% | 62%
6 |  | C=C(C)c1c(C)nn(C)c1Nc1c(F)cc([N+](=O)[O-])cc1F [Compound 36] | 55* % | 0* % | 27* % | 0* % | 88* % |  |  |  |  | 
7 |  | Cc1nn(C)c(Nc2ccc(F)cc2Cl)c1C1=CCC(C#N)CC1 (centres unmarked) [Compound 13] | 67* % | 0* % | 13* % | 79* % | 97* % |  |  |  |  | 
8 |  | Cc1nn(C)c(Nc2c(F)cc(Cl)cc2F)c1C1=CCCC1 [Compound 43] |  |  |  |  |  | 68% | 0% | 0% | 0% | 92%
9 |  | CC=C(CC)c1c(C)nn(C)c1Oc1c(F)cccc1F [Compound 51] |  |  |  |  |  | 0% | 0% | 0% | 15% | 0%
10 |  | CC(=NO)c1c(C)nn(C)c1Nc1ccc(F)cc1Cl [Compound 34] | 28* % | 0* % | 64* % | 0* % | 76* % |  |  |  |  | 
11 |  | CCC(O)(CC)c1c(C)nn(C)c1Oc1c(F)cccc1F [Compound 44] |  |  |  |  |  | 0% | 0% | 43% | 3% | 15%
12 |  | Cc1nn(C)c(Nc2c(F)cc([N+](=O)[O-])cc2F)c1C1=CCCCC1 [Compound 4] |  |  |  |  |  | 32% | 0% | 0% | 92% | 93%
13 |  | Cc1nn(C)c(Nc2c(F)cc(N)cc2F)c1C1=CCCCC1 [Compound 5] |  |  |  |  |  | 0% | 0% | 0% | 0% | 1%
14 | 171 to 173 °C | Cc1nn(C)c(C(O)c2ccc(F)cc2Cl)c1C1CCCCC1 (stereo not drawn) [Compound 11, α-(2-chloro-4-fluorophenyl)-4-cyclohexyl-1,3-dimethyl-1H-pyrazole-5-methanol] | 86* % |  | 93* % | 24* % | 100* % |  |  |  |  | 
15 |  | CCON=C(CC)c1c(C)nn(C)c1Oc1c(F)cccc1F [Compound 50] |  |  |  |  |  | 0% | 0% | 0% | 3% | 40%
16 |  | CCCCCCCCc1c(C)nn(C)c1Nc1ccc(F)cc1Cl [Compound 2] |  |  |  |  |  | 0% | 0% | 0% | 0% | 0%
17 |  | CCCCCCCCc1c(C)nn(C)c1Nc1ccc(F)cc1 [Compound 1] |  |  |  |  |  | 41% | 0% | 63% | 0% | 0%
18 |  | CCCON=C(CC)c1c(C)nn(C)c1Oc1c(F)cccc1F [Compound 45] |  |  |  |  |  | 0% | 0% | 0% | 0% | 3%
19 |  | Cc1nn(C)c(Nc2c(F)cc(Cl)cc2F)c1C1CCCCC1 [Compound 46, N-(4-chloro-2,6-difluorophenyl)-4-cyclohexyl-1,3-dimethyl-1H-pyrazol-5-amine] |  |  |  |  |  | 92% | 0% | 98% | 95% | 99%
20 |  | CCC(=NOC)c1c(C)nn(C)c1Oc1c(F)cccc1F [Compound 49] |  |  |  |  |  | 0% | 0% | 0% | 39% | 16%
21 |  | CCC(=NO)c1c(C)nn(C)c1Oc1c(F)cccc1F [Compound 47] |  |  | 89* % |  |  | 0% | 0% |  | 0% | 81%
22 |  | Cc1nn(C)c(Nc2ccc(F)cc2F)c1C1CCC(C#N)CC1 (centres unmarked) [Compound 63] | 86* % |  | 96* % | 0* % | 55* % |  |  |  |  | 
23 |  | CCC(=NOC(C)C)c1c(C)nn(C)c1Oc1c(F)cccc1F [Compound 48] |  |  |  |  |  | 0% | 0% | 0% | 18% | 32%
24 |  | Cc1nn(C)c(Nc2ccc(F)cc2Cl)c1C1=CCC(C)(C)CC1 [Compound 60] | 19* % |  | 0* % | 0* % | 16* % |  |  |  |  | 
25 |  | Cc1nn(C)c(Nc2ccc(F)cc2F)c1C1CCOCC1 [Compound 59] | 41* % |  | 98* % | 24* % | 92* % |  |  |  |  | 
